According to US20080167201A1, “Method For Synthesizing Derivative, Compound Library and Method For Constructing the Same, and Method For Screening” (priority 2004, published 2008):

Experiments:
[1] = system: HT-29 cells derived from human colon cancer; assay: ATP synthesis (ATP content by luciferase luciferin) in HT-29 cells; type: cell-based; conditions: 3 hr incubation, same concentration range as inhibits cell migration (FIG. 5)
Protocol: 1 ml of suspension of HT-29 cells derived from human colon cancer (4×10^5 cells/ml; RPMI1640 medium) was added to each well of a 24-well plate and incubated at 37° C. for 24 hr. Then, migrastatin or oxidized migrastatin was added thereto and incubated for 3 hr. In addition, a cultured broth to which migrastatin and oxidized migrastatin were not added was similarly incubated as a control. After the incubation, each well was washed twice with ice-cooled PBS^−. After an addition of 200 μl of 2% trichloroacetic acid, the plate was left at 4° C. for 30 min. The supernatant (160 μl) was neutralized with 36.8 μl of 0.5 N NaOH and used as a sample. This sample (160 μl) was added to 3 ml of PBS^− containing 4 mM MgCl2. Then, 40 μl of 4 mg/ml luciferase luciferin (Sigma) was added thereto and immediately the ATP content was measured with a single-photon monitor of a scintillation counter (LS-5000TD: BECKMAN COULTER). In addition, the ATP content under the conditions where the sample and luciferase luciferin were not added was measured as a blank value and was subtracted from each measurement value.

[2] = system: EC17 cells derived from human esophageal cancer; assay: cell migration inhibition, scratch assay with EC17 cells; type: cell-based; conditions: compound added immediately after scratching, 24 hr incubation, microscopic observation (FIG. 4)
Protocol: 500 μl of suspension of EC17 cells derived from human esophageal cancer (1.5×10^5 cells/ml; RPMI1640 medium (Nissui)) was added to each well of a 48-well plate and incubated at 37° C. for 24 hr. Then, the cells were linearly scraped off by scratching the center of the bottom of each well in a straight line with a micropipette tip. Then, the supernatant of the culture broth was immediately removed. The well was washed with 300 μl of PBS^− (8 g/l NaCl, 0.2 g/l KCl, 0.916 g/l Na2HPO4, 0.2 g/l KH2PO4) carefully not to scrape the remaining cells, and 500 μl of a RPMI1640 medium containing 1% serum (FBS; manufactured by Tissue Culture Biologicals) was gently added to the well. Further, migrastatin or oxidized migrastatin was added thereto and incubated at 37° C. for 24 hr. In addition, a culture broth to which migrastatin and oxidized migrastatin were not added was similarly incubated as a control. After the incubation, how much the straight line formed with the micropipette tip was filled with cells which had migrated from surroundings was confirmed by microscopic observation to evaluate migration of the cells.

CO[C@H]1/C=C/CC/C=C/C(=O)O[C@H]([C@H](C)C(=O)CCCC2CC(=O)NC(=O)C2)/C(C)=C\[C@@H](C)[C@@H]1O [migrastatin]
inhibition of ATP synthesis [1]: inhibited ATP synthesis
migration of cells ([2]; concentration of 30 μl/ml): completely inhibited
inhibition of migration of cells over the concentration range [2]: inhibited depending on the concentration of migrastatin

CO[C@H]1/C=C/CC/C=C/C(=O)O[C@H]([C@H](C)C(=O)CCCC2CC(=O)NC(=O)C2)/C(C)=C\[C@@H](C)C1=O [oxidized migrastatin, migrastatin oxide]
inhibition of ATP synthesis [1]: did not inhibit ATP synthesis at all
inhibition of migration of cells over the concentration range [2]: inhibition effect was observed at almost the same concentration range
